This is an account of results in ChEMBL document CHEMBL3085700 (J Med Chem, 2013).

SMILES strings stand for the structures. Activity calls are given as the source filed them. The calls are words filed in the database; no cut-off is given here.

One test addresses T1, Monoglyceride lipase (Homo sapiens, UniProt Q99685).
T1 sequence (Q99685 whole entry): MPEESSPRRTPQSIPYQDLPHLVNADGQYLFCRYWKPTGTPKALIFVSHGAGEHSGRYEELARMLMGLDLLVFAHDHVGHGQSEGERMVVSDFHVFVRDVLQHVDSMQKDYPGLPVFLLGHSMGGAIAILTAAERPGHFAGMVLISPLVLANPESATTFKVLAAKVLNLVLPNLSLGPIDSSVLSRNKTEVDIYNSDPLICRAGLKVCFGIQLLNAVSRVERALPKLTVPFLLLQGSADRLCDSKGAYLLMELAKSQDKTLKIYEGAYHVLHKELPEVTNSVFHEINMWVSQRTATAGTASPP
As to the kind of experiment: Inhibition of human recombinant MAGL overexpressed in HEK cells using 2-AG as substrate preincubated for 10 mins before substrate addition measured after 10 mins by HPLC analysis. It counts as cell-based, HEK293.

Test [1] has as its target T2, Monoacylglycerol lipase ABHD6 (Homo sapiens) (UniProt Q9BV23).
T2 sequence (whole entry): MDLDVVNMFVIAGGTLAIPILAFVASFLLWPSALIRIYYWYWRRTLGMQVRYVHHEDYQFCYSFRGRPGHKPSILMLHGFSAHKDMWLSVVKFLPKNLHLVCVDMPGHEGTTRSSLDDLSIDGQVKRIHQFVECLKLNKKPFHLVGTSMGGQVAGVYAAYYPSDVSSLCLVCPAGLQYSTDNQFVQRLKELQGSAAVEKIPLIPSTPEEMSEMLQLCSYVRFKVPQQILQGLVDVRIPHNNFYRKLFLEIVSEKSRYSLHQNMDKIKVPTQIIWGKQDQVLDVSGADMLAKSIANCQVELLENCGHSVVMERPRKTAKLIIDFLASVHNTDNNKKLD
The test can be described thus: Inhibition of human ABHD6 overexpressed in HEK293 cells assessed as 2-AG hydrolysis at 1 uM by fluorescent glycerol assay. It counts as cell-based.

In test [2] the target is T3, Fatty-acid amide hydrolase 1 (Homo sapiens, UniProt O00519).
T3 sequence (O00519 whole entry): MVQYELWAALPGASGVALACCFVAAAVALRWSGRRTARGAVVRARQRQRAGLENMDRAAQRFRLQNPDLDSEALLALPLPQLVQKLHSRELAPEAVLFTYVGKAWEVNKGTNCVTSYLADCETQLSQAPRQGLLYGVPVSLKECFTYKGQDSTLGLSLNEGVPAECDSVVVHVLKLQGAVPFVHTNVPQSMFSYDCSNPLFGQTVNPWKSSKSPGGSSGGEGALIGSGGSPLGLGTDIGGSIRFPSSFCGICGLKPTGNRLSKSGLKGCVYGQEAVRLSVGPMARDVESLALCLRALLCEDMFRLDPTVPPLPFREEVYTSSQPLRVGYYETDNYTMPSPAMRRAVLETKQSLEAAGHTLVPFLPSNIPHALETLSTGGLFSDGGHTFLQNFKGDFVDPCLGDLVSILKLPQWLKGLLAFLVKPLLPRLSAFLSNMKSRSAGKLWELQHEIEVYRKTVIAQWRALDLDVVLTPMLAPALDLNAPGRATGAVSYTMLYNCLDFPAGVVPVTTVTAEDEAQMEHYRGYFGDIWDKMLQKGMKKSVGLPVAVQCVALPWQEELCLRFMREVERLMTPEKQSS
The test can be described thus: Inhibition of human recombinant FAAH overexpressed in African green monkey COS7 cells using [3H]-anandamide as substrate preincubated for 10 mins before substrate addition measured after 10 mins by liquid scintillation counting analysis. It counts as cell-based, COS-7.

Test [3] addresses T4, Lysophosphatidylserine lipase ABHD12 (Homo sapiens) (UniProt Q8N2K0).
T4 sequence (whole entry): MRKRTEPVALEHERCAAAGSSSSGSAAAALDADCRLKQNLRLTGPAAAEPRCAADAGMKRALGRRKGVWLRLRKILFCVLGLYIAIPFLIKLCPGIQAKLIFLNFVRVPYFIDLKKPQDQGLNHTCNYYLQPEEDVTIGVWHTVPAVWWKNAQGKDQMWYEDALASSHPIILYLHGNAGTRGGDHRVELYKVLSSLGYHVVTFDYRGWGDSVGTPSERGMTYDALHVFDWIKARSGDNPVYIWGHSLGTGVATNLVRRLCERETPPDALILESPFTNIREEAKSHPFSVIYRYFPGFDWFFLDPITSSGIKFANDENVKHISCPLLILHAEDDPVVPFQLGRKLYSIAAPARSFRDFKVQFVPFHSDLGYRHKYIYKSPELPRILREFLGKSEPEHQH
The test can be described thus: Inhibition of human ABHD12 overexpressed in HEK293 cells assessed as 2-AG hydrolysis at 1 uM by fluorescent glycerol assay. Format: cell-based.

Test [4] concerns the target T5, Monoglyceride lipase (Homo sapiens) (UniProt Q99685).
T5 sequence (whole entry): T1 sequence (Q99685 whole entry)
The test can be described thus: Inhibition of human recombinant MAGL overexpressed in HEK cells using 2-AG as substrate at 10 uM preincubated for 10 mins before substrate addition measured after 10 mins by HPLC analysis relative to control. It counts as cell-based. The settings on record: HEK293.

The target of test [5] is T6, Fatty-acid amide hydrolase 1 (Homo sapiens) (UniProt O00519).
T6 sequence (whole entry): T3 sequence (O00519 whole entry)
As to the kind of experiment: Inhibition of human recombinant FAAH overexpressed in African green monkey COS7 cells using [3H]-anandamide as substrate at 10 uM preincubated for 10 mins before substrate addition measured after 10 mins by liquid scintillation counting analysis relative to control. It counts as cell-based. As to conditions: COS-7.

The target in test [6] is T6, Fatty-acid amide hydrolase 1 (Homo sapiens). As to the kind of experiment: Inhibition of human recombinant FAAH overexpressed in African green monkey COS7 cells using [3H]-anandamide as substrate at 10 to 100 uM preincubated for 10 to 60 mins by liquid scintillation counting analysis. It counts as cell-based. The settings on record: COS-7.
For test [7] the target is unchanged. As to the kind of experiment: Inhibition of human recombinant FAAH overexpressed in African green monkey COS7 cells using [3H]-anandamide as substrate at 3 to 30 uM preincubated for 10 to 60 mins by liquid scintillation counting analysis. Format: cell-based. As to conditions: COS-7.
Test [8] has the same target. As to the kind of experiment: Reversible inhibition of human recombinant FAAH overexpressed in African green monkey COS7 cells using […] as substrate assessed as recovery of enzyme activity at 20 x IC50 preincubated for 60 mins followed by 500 fold dilution measured after 10 mins by HPLC analysis. As to conditions: COS-7. It counts as cell-based.
Test [9] shares this target. As to the kind of experiment: Noncompetitive inhibition of human recombinant FAAH overexpressed in African green monkey COS7 cells using anandamide as substrate assessed as decrease in Vmax of substrate hydrolysis preincubated for 10 mins before substrate addition measured after 10 mins by HPLC analysis. The settings on record: COS-7.
Test [10] shares this target. The test can be described thus: Inhibition of human recombinant FAAH overexpressed in African green monkey COS7 cells using [3H]-anandamide as substrate at 10 to 300 uM preincubated for 10 to 60 mins by liquid scintillation counting analysis. Format: cell-based. As to conditions: COS-7.

By inhibition is commonly meant the relative decrease from the control value, in per cent. Take `COc1nn(Cc2ccc(CC(C)C)cc2)c(=O)o1`: the IC50 was 1300 nM at Monoglyceride lipase (read-out: IC50), 91 nM in test [2] (read-out: IC50) and 89.1 nM in test [2] (read-out: pIC50 (converted)). For the same molecule, the inhibition result in test [1] and in test [3] was “inactive” each time.

Take `COc1nn(C(C)c2ccccc2)c(=O)o1` (stereo unspecified): the inhibition result in test [1], in [4] and in test [3] was “inactive” in each case. The figures for the IC50 in [2] (read-out: IC50) and in test [2] (read-out: pIC50 (converted)) were 6000 nM and 6030 nM, respectively.

For `COc1nn(Cc2cccc(Oc3ccccc3)c2)c(=O)o1`, the inhibition result in [1] and in test [3] was “inactive” each time. Moreover, the IC50 in test [2] (read-out: IC50) was 980 nM; in test [2] (read-out: pIC50 (converted)), 977 nM. In addition, the inhibition in test [4] was found to be 15%.

Take `COc1nn(Cc2ccc(-c3ccccc3)cc2)c(=O)o1`: the IC50 on Monoglyceride lipase (read-out: IC50) is 1600 nM; in [2] (read-out: IC50), 160 nM; in test [2] (read-out: pIC50 (converted)) it was 162 nM. The inhibition entry in test [1] and in [3] was “inactive” each time.

For `COc1nn(Cc2cccc(-c3ccccc3)c2)c(=O)o1`, the inhibition entry in test [1] and in test [3] was “inactive” each time. In addition, the figures for the inhibition in [5] and in test [4] were 46% and 32%, respectively.

Take `COc1nn(Cc2ccccc2)c(=O)o1`: the inhibition entry in test [1], in [5], in test [4] and in [3] was “inactive” throughout.

Take `COc1nn(C(C)c2cccc(Oc3ccccc3)c2)c(=O)o1` (stereo unspecified): the inhibition result in test [1] and in test [3] was “inactive” in each case. Also, the IC50 in test [2] (read-out: IC50) was 5200 nM; in test [2] (read-out: pIC50 (converted)), 5250 nM. In addition, the inhibition in test [4] was 14%.

For `COc1nn(C(C)c2ccc(-c3ccccc3)cc2)c(=O)o1` (racemic), the inhibition entry in [1] and in [3] was “inactive” throughout. Further, the IC50 in [2] (read-out: IC50) is 48 nM; in [2] (read-out: pIC50 (converted)), 46.8 nM. In test [4], the inhibition was 34%.

With `COc1nn(Cc2ccc(Oc3ccccc3)cc2)c(=O)o1`, the IC50 is 400 nM on Monoglyceride lipase (read-out: IC50); 100 nM in [2] (cos-7, read-out: IC50); 100 nM in [2] (read-out: pIC50 (converted)). The inhibition entry in test [1] and in [3] was “inactive” each time.

Take `COc1nn([C@H](C)c2ccc(N(c3ccccc3)c3ccccc3)cc2)c(=O)o1`: the IC50 is 350 nM at Monoglyceride lipase (read-out: IC50), 339 nM on Monoglyceride lipase (read-out: pIC50 (converted)), 6300 nM in [2] (read-out: IC50) and 6170 nM in test [2] (read-out: pIC50 (converted)). For the same molecule, the inhibition result in [1] and in test [3] was “inactive” throughout.

`COc1nn(C(C)c2ccc(Oc3ccccc3)cc2)c(=O)o1` (stereo unspecified): the IC50 is 2000 nM on Monoglyceride lipase (read-out: IC50), 34 nM in test [2] (read-out: IC50) and 33.9 nM in [2] (read-out: pIC50 (converted)). In addition, the inhibition result in test [1] and in test [3] was “inactive” throughout.

On to `COc1nn(Cc2ccccc2Oc2ccccc2)c(=O)o1`, for which the inhibition result in test [1], in [4] and in test [3] was “inactive” in each case. Besides, the IC50 is 6300 nM in test [2] (read-out: IC50) and 6310 nM in test [2] (read-out: pIC50 (converted)).

Take `COc1nn([C@H](C)c2ccc(-c3ccccc3)cc2)c(=O)o1`: the inhibition entry in [1] and in test [3] was “inactive” throughout. For the same molecule, the IC50 is 3000 nM in test [2] (read-out: IC50) and 2880 nM in [2] (read-out: pIC50 (converted)). Moreover, the inhibition in test [4] is 49%.

`COc1nn(C2CCCCC2)c(=O)o1`: the inhibition result in [1], in test [4] and in [3] was “inactive” in each case. Besides, in [5], the inhibition came out at 40%.

In the case of `COc1nn(C(c2ccccc2)c2ccccc2)c(=O)o1`, the inhibition result in test [1], in [5], in test [4] and in [3] was “inactive” each time.

Consider `COc1nn(C(C)C)c(=O)o1`, for which the inhibition entry in test [1] and in [3] was “inactive” in each case. The results for the inhibition in test [5] and in test [4] were 12% and 6%, respectively.

Turning to `COc1nn(C(C)c2cccc(-c3ccccc3)c2)c(=O)o1` (stereo unspecified), the inhibition entry in test [1] and in [3] was “inactive” in each case. The results for the IC50 in test [2] (read-out: IC50) and in test [2] (read-out: pIC50 (converted)) were 1200 nM and 1170 nM, respectively. Also, the inhibition in [4] is 42%.

Take `COc1nn(Cc2ccc(N(c3ccccc3)c3ccccc3)cc2)c(=O)o1`: the IC50 at Monoglyceride lipase (read-out: IC50) is 260 nM; in test [2] (read-out: IC50) it was 470 nM; in [2] (read-out: pIC50 (converted)), 457 nM. The inhibition result in test [1] and in test [3] was “inactive” in each case.

In the case of `COc1nn([C@@H](C)c2ccc(N(c3ccccc3)c3ccccc3)cc2)c(=O)o1`, the inhibition entry in [6], in test [7], in [8] and in [10] was “Active” throughout. Moreover, the inhibition result in [1] and in test [3] was “inactive” throughout. Besides, the IC50 is 98 nM in test [2] (read-out: IC50) and 100 nM in test [2] (read-out: pIC50 (converted)). In addition, the inhibition in test [4] is 41%; in [9] it was “Dose-dependent effect”.

With `COc1nn(C(C)c2ccc(CC(C)C)cc2)c(=O)o1` (racemic), the inhibition entry in [1] and in [3] was “inactive” in each case. In addition, the IC50 in [2] (read-out: IC50) was 23 nM; in test [2] (read-out: pIC50 (converted)) it was 22.9 nM. For the same molecule, the inhibition in [4] amounted to 48%.
